Experimental data published in the NIST ThermoML archive (doi:10.1016/j.jct.2019.04.010).

Test: xn = mol fraction of the nth substance listed
Conditions: 100 kPa, Liquid; for mass density: Vibrating tube method; for viscosity: Concentric cylinders viscometry

CCCCn1cc[n+](C)c1.O=[N+]([O-])[O-] [1-butyl-3-methylimidazolium nitrate] + CCCC(C)O
Conditions | mass density, 308.15 K [kg/m3] | mass density, 313.15 K [kg/m3] | mass density, 318.15 K [kg/m3] | mass density, 323.15 K [kg/m3] | viscosity, 313.15 K [mPa·s] | viscosity, 318.15 K [mPa·s] | viscosity, 323.15 K [mPa·s]
x1 = 0.0812 | 842.8 | 838.8 | 834.7 | 830.7 | 2.3 | 1.95 | 1.66
x1 = 0.1604 | 882.7 | 879.2 | 875.2 | 871.4 | 2.8 | 2.4 | 1.99
x1 = 0.2403 | 919.4 | 916 | 912.1 | 908.7 | 3.55 | 3.05 | 2.49
x1 = 0.3499 | 964.4 | 961.2 | 957.5 | 954.3 | 5.05 | 4.37 | 3.56
x1 = 0.4399 | 997.5 | 994.4 | 990.9 | 987.9 | 6.97 | 5.91 | 4.81
x1 = 0.5604 | 1037.4 | 1034.4 | 1031.1 | 1028.2 | 10.51 | 8.91 | 7.13
x1 = 0.6505 | 1064.4 | 1061.4 | 1058.3 | 1055.5 | 14.75 | 12.21 | 9.68
x1 = 0.7405 | 1089.1 | 1086.1 | 1083.2 | 1080.5 | 20.64 | 17.09 | 13.67
x1 = 0.8501 | 1116.3 | 1113.4 | 1110.7 | 1108.1 | 31.9 | 26.5 | 21.47
x1 = 0.9396 | 1136.5 | 1133.8 | 1131 | 1128.4 | 50 | 40 | 32.3
x1 = 1 | 1149.3 | 1146.5 | 1143.8 | 1141.2 | 75.12 | 56.28 | 45.17
